Data taken from patent US12552748B2, “Pyridine (thio)amides as fungicidal compounds” (Bayer Aktiengesellschaft, priority 2020, dated 2026).
Marks after values point to notes of the source that are not given here.

Experiment: physchem
Format: physicochemical
Protocol: Measurement of Log P values as provided herein was performed according to EEC directive 79/831 Annex V.A8 by HPLC (High Performance Liquid Chromatography) on reversed phase columns with the following methods: […] If more than one Log P value is available within the same method, all the values are given and separated by “+”. Calibration was done with straight-chain alkan2-ones (with 3 to 16 carbon atoms) with known Log P values (measurement of Log P values using retention times with linear interpolation between successive alkanones). Lambda-max-values were determined using UV-spectra from 200 nm to 400 nm and the peak values of the chromatographic signals

Row | chromatographic logP | SMILES | LogP
1 | 3.4 | Cc1ccc(CCNC(=O)c2cc(Cl)ncc2Br)c(C)c1 [Compound 3-001, 5-bromo-2-chloro-N-[2-(2,4-dimethylphenyl)ethyl]pyridine-4-carboxamide] | –
2 | – | Cc1ccc(CCNC(=O)c2cc(C(F)(F)F)ncc2Br)c(C)c1 [Compound 3-002] | 3.77^[a]
3 | – | Cc1ccc(C(F)(F)CNC(=O)c2cc(Cl)ncc2Br)c(C)c1 [Compound 3-003] | 3.57^[a]
4 | – | O=C(NCC(F)(F)c1ccc(Br)cc1Cl)c1cc(Cl)ncc1Br [Compound 3-004] | 3.68^[a]
5 | 3.81 | Cc1ccc(C(F)(F)CNC(=O)c2c(Br)cnc(Cl)c2F)c(C)c1 [Compound 3-005, 5-bromo-2-chloro-N-[2-(2,4-dimethylphenyl)-2,2-difluoro-ethyl]-3-fluoro-pyridine-4-carboxamide] | –
6 | – | Cc1ccc(C(F)(F)CNC(=O)c2c(Br)cnc(Cl)c2Cl)c(C)c1 [Compound 3-006] | 3.98^[a]
7 | – | COc1c(Cl)ncc(Br)c1C(=O)NCC(F)(F)c1ccc(C)cc1C [Compound 3-007] | 3.75^[a]
8 | – | O=C(NCC(F)(F)c1ccc(Br)cc1Cl)c1cc(Cl)ncc1Oc1cccc(C(F)(F)F)c1 [Compound I-001] | 5.00^[a]
9 | – | Cc1ccc(CCNC(=O)c2cc(Cl)ncc2Oc2cccc(C(F)(F)F)c2)c(C)c1 [Compound I-002] | 4.73^[a]
10 | – | COc1cc(C(=O)NCC(F)(F)c2ccc(Br)cc2Cl)c(Oc2cccc(C(F)(F)F)c2)cn1 [Compound I-003] | 4.95^[a]
11 | – | COc1cc(C(=O)NCC(F)(F)c2ccc(C)cc2C)c(Oc2cccc(C(F)(F)F)c2)cn1 [Compound I-004] | 4.77^[a]
12 | – | Cc1ccc(C(F)(F)CNC(=O)c2cc(Cl)ncc2Oc2cccc(C(F)(F)F)c2)c(C)c1 [Compound I-005] | 4.77^[a]
13 | – | COc1ccc(CCNC(=O)c2cc(Cl)ncc2Oc2cccc(C(F)(F)F)c2)c(OC)c1 [Compound I-008] | 4.06^[a]
14 | – | O=C(NCC(F)(F)c1ccc(Cl)cc1Cl)c1cc(Cl)ncc1Oc1cccc(C(F)(F)F)c1 [Compound I-009] | 4.82^[a]
15 | – | O=C(NCC(F)c1ccc(Cl)cc1Cl)c1cc(Cl)ncc1Oc1cccc(C(F)(F)F)c1 (stereo not shown) [Compound I-010] | 4.74^[a]
16 | – | O=C(NCC(F)(F)c1ccc(Cl)cc1)c1cc(Cl)ncc1Oc1cccc(C(F)(F)F)c1 [Compound I-011] | 4.41^[a]
17 | – | O=C(NCC(F)c1ccc(Br)cc1Cl)c1cc(Cl)ncc1Oc1cccc(C(F)(F)F)c1 (stereo not shown) [Compound I-012] | 4.85^[a]
18 | – | CC(=O)c1cccc(Oc2cnc(Cl)cc2C(=O)NCCc2ccc(C)cc2C)c1 [Compound I-014] | 3.87^[a]
19 | – | Cc1ccc(C(F)(F)CNC(=O)c2ccncc2Oc2cccc(C(F)(F)F)c2)c(C)c1 [Compound I-015] | 3.84^[a]
20 | – | Cc1ccc(CONC(=O)c2cc(Cl)ncc2Oc2cccc(C(F)(F)F)c2)c(C)c1 [Compound I-017] | 4.26^[a]
21 | – | Cc1cc(C(=O)NC(C)c2cn(C)c3ccccc23)c(Oc2cccc(C(F)(F)F)c2)cn1 (stereo not shown) [Compound I-020] | 3.64^[a]
22 | – | CC(NC(=O)c1cc(Cl)ncc1Oc1cccc(C(F)(F)F)c1)c1cn(C)c2cc(Cl)ccc12 (stereo not shown) [Compound I-021] | 4.68^[a]
23 | – | CCc1cc(C(=O)NCC(F)c2ccc(F)cc2F)c(Oc2cccc(C(F)(F)F)c2)cn1 (stereo not shown) [Compound I-022] | 4.66^[a]
24 | – | Cc1ccc(C(F)(F)CNC(=O)c2cc(Cl)ncc2Oc2cccc(C(F)(F)F)c2C)c(C)c1 [Compound I-023] | 5.14^[a]

Row | chromatographic logP | SMILES | LogP
25 | – | O=C(NCC(F)c1ccc(Cl)cc1Cl)c1cc(C2CC2)ncc1Oc1cccc(C(F)(F)F)c1 (stereo not shown) [Compound I-024] | 4.96^[a]
26 | – | Cc1ccc(CCNC(=O)c2cc(Cl)ncc2Oc2cccc(OC(F)(F)F)c2)c(C)c1 [Compound I-025] | 4.97^[a]
27 | – | CCc1cc(C(=O)NCC(F)(F)c2ccc(C)cc2C)c(Oc2cccc(C(F)(F)F)c2)cn1 [Compound I-026] | 4.58^[a]
28 | – | Cc1ccc(CCNC(=O)c2cc(C)ncc2Oc2cccc(C(F)(F)F)c2)c(C)c1 [Compound I-028] | 4.03^[a]
29 | – | C#Cc1ccc(C(F)(F)CNC(=O)c2cc(Cl)ncc2Oc2cccc(C(F)(F)F)c2)c(Cl)c1 [Compound I-029] | 4.53^[a]
30 | – | CCc1cc(C(=O)NCCc2ccc(C)cc2C)c(Oc2cccc(C(F)(F)F)c2)cn1 [Compound I-030] | 4.49^[a]
31 | – | C#Cc1cc(C(=O)NC(C)c2cn(C)c3cc(Cl)ccc23)c(Oc2cccc(C(F)(F)F)c2)cn1 (stereo not shown) [Compound I-031] | 4.27^[a]
32 | – | C#Cc1cc(C(=O)NCC(F)(F)c2ccc(C)cc2C)c(Oc2cccc(C(F)(F)F)c2)cn1 [Compound I-032] | 4.39^[a]
33 | – | Cc1ccc(C(F)(F)CNC(=O)c2cc(C)ncc2Oc2cccc(C(F)(F)F)c2)c(Cl)c1 [Compound I-033] | 4.19^[a]
34 | – | Cc1ccc(C(F)(F)CNC(=O)c2cc(Cl)ncc2Oc2cccc(Cl)c2)c(C)c1 [Compound I-036] | 4.74^[a]
35 | – | Cc1ccc(C(F)(F)CNC(=O)c2cc(Cl)ncc2Oc2cccc(C(F)F)c2)c(C)c1 [Compound I-038] | 4.35^[a]
36 | – | Cc1ccc(CCNC(=O)c2cc(Cl)ncc2Oc2cccc(C(F)F)c2)c(C)c1 [Compound I-039] | 4.30^[a]
37 | – | COc1cccc(Oc2cnc(Cl)cc2C(=O)NCC(F)(F)c2ccc(C)cc2C)c1 [Compound I-042] | 4.46^[a]
38 | – | Cc1cccc(Oc2cnc(Cl)cc2C(=O)NCC(F)(F)c2ccc(C)cc2C)c1 [Compound I-044] | 4.85^[a]
39 | – | Cc1cccc(Oc2cnc(Cl)cc2C(=O)NCCc2ccc(C)cc2C)c1 [Compound I-045] | 4.84^[a]
40 | – | O=C(NCC(F)(F)c1ccc(Br)cc1Cl)c1c(Oc2cccc(C(F)(F)F)c2)cnc(Cl)c1I [Compound I-046] | 4.96^[a]
41 | – | Cc1cccc(Oc2cnc(C)cc2C(=O)NCC(F)(F)c2ccc(C)cc2C)c1 [Compound I-047] | 4.08^[a]
42 | – | COc1cccc(Oc2cnc(Cl)cc2C(=O)NCC(F)(F)c2ccc(C)cc2Cl)c1 [Compound I-048] | 3.67^[a]
43 | – | Cc1ccc(C(F)(F)CNC(=O)c2cc(C)ncc2Oc2cccc(C(F)F)c2)c(C)c1 [Compound I-049] | 3.73^[a]
44 | – | C=C(OCC)c1cc(C(=O)NCCc2ccc(C)cc2C)c(Oc2cccc(C(F)(F)F)c2)cn1 [Compound I-051] | 4.84^[a]
45 | – | Cc1ccc(C(F)(F)CNC(=O)c2cc(C)ncc2Oc2cccc(Cl)c2)c(C)c1 [Compound I-058] | 4.13^[a]
46 | – | Cc1ccc(CCNC(=O)c2cc(C#N)ncc2Oc2cccc(C(F)(F)F)c2)c(C)c1 [Compound I-059] | 4.39^[a]
47 | – | Cc1ccc(C(F)(F)CNC(=O)c2cc(Cl)ncc2Oc2cccc(C3CC3)c2F)c(C)c1 [Compound I-061] | 5.11^[a]
48 | – | Cc1ccc(CCNC(=O)c2cc(Cl)ncc2Oc2cccc(C3CC3)c2F)c(C)c1 [Compound I-062] | 5.11^[a]

Row | chromatographic logP | SMILES | LogP
49 | – | Cc1ccc(C(F)(F)CNC(=O)c2cc(Cl)ncc2Oc2cccc(C3CC3)c2)c(C)c1 [Compound I-065] | 5.17^[a]
50 | – | O=C(NCC(F)(F)c1ccc(Br)cc1Cl)c1cc(Cl)ncc1Oc1cccc(C2CC2)c1 [Compound I-066] | 5.36^[a]
51 | – | Cc1ccc(C(F)(F)CNC(=O)c2cc(C)ncc2Oc2cccc(Cl)c2)c(Cl)c1 [Compound I-067] | 4.06^[a]
52 | – | Cc1cccc(Oc2cnc(C)cc2C(=O)NCC(F)(F)c2ccc(C)cc2Cl)c1 [Compound I-068] | 4.06^[a]
53 | – | Cc1ccc(C(F)(F)CNC(=O)c2cc(C)ncc2Oc2cccc(C3CC3)c2F)c(C)c1 [Compound I-069] | 4.46^[a]
54 | – | Cc1ccc(C(F)(F)CNC(=O)c2cc(C)ncc2Oc2cccc(C3CC3)c2)c(C)c1 [Compound I-070] | 4.44^[a]
55 | – | Cc1ccc(C(F)(F)CNC(=O)c2cc(C)ncc2Oc2cccc(C3CC3)c2)c(Cl)c1 [Compound I-071] | 4.39^[a]
56 | – | C=Cc1cc(C(=O)NCC(F)(F)c2ccc(C)cc2C)c(Oc2cccc(C3CC3)c2)cn1 [Compound I-072] | 5.05^[a]
57 | – | O=C(NCC(F)(F)c1ccc(C2CC2)cc1Cl)c1cc(Cl)ncc1Oc1cccc(C2CC2)c1F [Compound I-075] | 5.31^[a]
58 | – | Cc1ccc(CCNC(=O)c2cc(N3CCCC3)ncc2Oc2cccc(C(F)(F)F)c2)c(C)c1 [Compound I-088] | 4.26^[a]
59 | – | Cc1ccc(C(F)(F)CNC(=O)c2cc(C)ncc2Oc2cccc(C3CC3)c2F)c(Cl)c1 [Compound I-089] | 4.47^[a]
60 | – | Cc1ccc(C(F)(F)CNC(=O)c2cc(Cl)nc(F)c2Oc2cccc(C(F)(F)F)c2)c(C)c1 [Compound I-092] | 5.04^[a]
61 | – | CO/N=C(\C)c1cc(C(=O)NCCc2ccc(C)cc2C)c(Oc2cccc(C(F)(F)F)c2)cn1 [Compound I-093] | 5.36^[a]
62 | – | CO/N=C(/C)c1cc(C(=O)NCCc2ccc(C)cc2C)c(Oc2cccc(C(F)(F)F)c2)cn1 [Compound I-094] | 4.85^[a]
63 | – | Cc1ccc(CCNC(=O)c2cc(Cl)ncc2Oc2cccc(C(F)(F)F)c2)o1 [Compound I-095] | 4.05^[a]
64 | – | Cc1cnn(CCNC(=O)c2cc(Cl)ncc2Oc2cccc(C(F)(F)F)c2)c1 [Compound I-096] | 3.14^[a]
65 | – | O=C(NCCc1cccs1)c1cc(Cl)ncc1Oc1cccc(C(F)(F)F)c1 [Compound I-097] | 3.98^[a]
66 | – | O=C(NCCn1cc(Cl)cn1)c1cc(Cl)ncc1Oc1cccc(C(F)(F)F)c1 [Compound I-098] | 3.40^[a]
67 | – | O=C(NCCc1ncc(Cl)cn1)c1cc(Cl)ncc1Oc1cccc(C(F)(F)F)c1 [Compound I-099] | 3.34^[a]
68 | – | O=C(NCCc1ccc2[nH]ccc2c1)c1cc(Cl)ncc1Oc1cccc(C(F)(F)F)c1 [Compound I-100] | 3.71^[a]
69 | – | O=C(NCCc1cccc2[nH]ccc12)c1cc(Cl)ncc1Oc1cccc(C(F)(F)F)c1 [Compound I-101] | 3.71^[a]
70 | – | CC(NC(=O)c1cc(Cl)ncc1Oc1cccc(C(F)(F)F)c1)c1ccc(Cl)s1 (stereo not shown) [Compound I-103] | 4.47^[a]
